# Test results as given in patent US20230219904A1 (SYNGENTA CROP PROTECTION AG, priority 2020, published 2023).
# Columns and labels:
# Format in all cases: in vivo
# Conditions in all cases: evaluated after 13 days
# Setaria faberi (SETFA) [1] = experiment: Post-emergence herbicidal glasshouse test (Table B1)
# Procedure: (§1) Seeds of a variety of test species are sown in standard soil in pots (Lolium perenne (LOLPE), Amaranthus retoflexus (AMARE), Abutilon theophrasti (ABUTH), Setaria faberi (SETFA), Echinochloa crus-galh (ECHCG), Ipomoea hederacea (IPOHE)). After cultivation for one day (pre-emergence) or after 8 days cultivation (post-emergence) under controlled conditions in a glasshouse (at 24/16° C., day/night; 14 hours light; 65% humidity), the plants are sprayed with an aqueous spray solution derived from the formulation of the technical active ingredient in acetone/water (50:50) solution containing 0.5% Tween 20 (polyoxyethelyene sorbitan monolaurate, CAS RN 9005-64-5). Compounds are applied at 500 g/h unless otherwise indicated. The test plants are then grown in a glasshouse under controlled conditions in a glasshouse (at 24/16° C., day/night; 14 hours light; 65% humidity) and watered twice daily. After 13 days for pre and post-emergence, the test is evaluated for the percentage damage caused to the plant. The biological activities are shown in the following table on a five-point scale (5=80-100%; 4=60-79%; 3=40-59%; 2=20-39%; 1=0-19%).
# [2] = system: Ipomoea hederacea (IPOHE); experiment: as above
# Procedure: as §1
# [3] = system: Echinochloa crus-galh (ECHCG); experiment: as above
# Procedure: as §1
# [4] = system: Amaranthus retoflexus (AMARE); experiment: as above
# Procedure: as §1
# [5] = system: Abutilon theophrasti (ABUTH); experiment: Pre-emergence herbicidal glasshouse test (Table B1)
# Procedure: as §1
# Setaria faberi (SETFA) [6] = experiment: as above
# Procedure: as §1
# [7] = system: Ipomoea hederacea (IPOHE); experiment: as above
# Procedure: as §1
# [8] = system: Echinochloa crus-galh (ECHCG); experiment: as above
# Procedure: as §1
# [9] = system: Amaranthus retoflexus (AMARE); experiment: as above
# Procedure: as §1
Structure (SMILES),"POST Application SETFA, percentage damage on five-point scale (Setaria faberi (SETFA) [1]; applied at 125 g/ha)","POST Application IPOHE, percentage damage on five-point scale ([2]; applied at 125 g/ha)","POST Application ECHCG, percentage damage on five-point scale ([3]; applied at 125 g/ha)","POST Application AMARE, percentage damage on five-point scale ([4]; applied at 125 g/ha)","PRE Application ABUTH, percentage damage on five-point scale ([5]; applied at 125 g/ha)","PRE Application SETFA, percentage damage on five-point scale (Setaria faberi (SETFA) [6]; applied at 125 g/ha)","PRE Application IPOHE, percentage damage on five-point scale ([7]; applied at 125 g/ha)","PRE Application ECHCG, percentage damage on five-point scale ([8]; applied at 125 g/ha)","PRE Application AMARE, percentage damage on five-point scale ([9]; applied at 125 g/ha)","POST Application SETFA, percentage damage on five-point scale (Setaria faberi (SETFA) [1]; applied at 500 g/h)","POST Application IPOHE, percentage damage on five-point scale ([2]; applied at 500 g/h)","POST Application ECHCG, percentage damage on five-point scale ([3]; applied at 500 g/h)","POST Application AMARE, percentage damage on five-point scale ([4]; applied at 500 g/h)","PRE Application ABUTH, percentage damage on five-point scale ([5]; applied at 500 g/h)","PRE Application SETFA, percentage damage on five-point scale (Setaria faberi (SETFA) [6]; applied at 500 g/h)","PRE Application IPOHE, percentage damage on five-point scale ([7]; applied)","PRE Application ECHCG, percentage damage on five-point scale ([8]; applied at 500 g/h)","PRE Application AMARE, percentage damage on five-point scale ([9]; applied at 500 g/h)"
CCn1nnnc1NC(=O)c1ccc(OC(F)(F)F)c(NC(=O)C(C)OC)c1Cl (stereo not drawn) [Compound 1.071],5 (5=80-100%),4 (4=60-79%),5 (5=80-100%),4 (4=60-79%),5 (5=80-100%),5 (5=80-100%),5 (5=80-100%),5 (5=80-100%),5 (5=80-100%),,,,,,,,,
Cn1nnnc1NC(=O)c1ccc(OC(F)F)c(NC(=O)c2cc(C(F)(F)F)ccn2)c1Cl [Compound 1.053],5 (5=80-100%),4 (4=60-79%),3 (3=40-59%),5 (5=80-100%),5 (5=80-100%),4 (4=60-79%),4 (4=60-79%),4 (4=60-79%),5 (5=80-100%),,,,,,,,,
CCC(=O)N(CC)c1c(OC(F)F)ccc(C(=O)Nc2nnnn2C)c1C(F)(F)F [Compound 1.091],4 (4=60-79%),3 (3=40-59%),5 (5=80-100%),4 (4=60-79%),5 (5=80-100%),4 (4=60-79%),3 (3=40-59%),5 (5=80-100%),5 (5=80-100%),,,,,,,,,
CCn1nnnc1NC(=O)c1ccc(OC(F)(F)F)c(NC(=O)C2(C)CC2)c1Cl [Compound 1.075],5 (5=80-100%),4 (4=60-79%),4 (4=60-79%),4 (4=60-79%),5 (5=80-100%),5 (5=80-100%),5 (5=80-100%),5 (5=80-100%),5 (5=80-100%),,,,,,,,,
CCn1nnnc1NC(=O)c1ccc(OC(F)(F)F)c(NC(=O)C(C)(F)F)c1Cl [Compound 1.060],5 (5=80-100%),4 (4=60-79%),4 (4=60-79%),5 (5=80-100%),5 (5=80-100%),4 (4=60-79%),3 (3=40-59%),4 (4=60-79%),5 (5=80-100%),,,,,,,,,
Cc1cc(C(=O)Nc2c(OC(F)(F)F)ccc(C(=O)Nc3nnnn3C)c2Cl)nn1C [Compound 1.046],5 (5=80-100%),5 (5=80-100%),5 (5=80-100%),5 (5=80-100%),5 (5=80-100%),5 (5=80-100%),5 (5=80-100%),5 (5=80-100%),5 (5=80-100%),,,,,,,,,
CCCOCC(=O)Nc1c(OC(F)(F)F)ccc(C(=O)Nc2nnnn2CC)c1Cl [Compound 1.070],4 (4=60-79%),4 (4=60-79%),4 (4=60-79%),4 (4=60-79%),5 (5=80-100%),4 (4=60-79%),4 (4=60-79%),4 (4=60-79%),5 (5=80-100%),,,,,,,,,
Cn1nnnc1NC(=O)c1ccc(OC(F)(F)C(F)F)c(NC(=O)C2CC2)c1Cl [Compound 1.110],,,,,,,,,,5 (5=80-100%),5 (5=80-100%),5 (5=80-100%),5 (5=80-100%),3 (3=40-59%),5 (5=80-100%),1 (1=0-19%),5 (5=80-100%),5 (5=80-100%)
Cc1nc(C)c(C(=O)Nc2c(OC(F)F)ccc(C(=O)Nc3nnnn3C)c2Cl)s1 [Compound 1.042],5 (5=80-100%),5 (5=80-100%),5 (5=80-100%),5 (5=80-100%),4 (4=60-79%),5 (5=80-100%),5 (5=80-100%),5 (5=80-100%),5 (5=80-100%),,,,,,,,,
Cn1nnnc1NC(=O)c1ccc(OC(F)F)c(NC(=O)c2ncc(C(F)(F)F)cc2Cl)c1Cl [Compound 1.081],3 (3=40-59%),4 (4=60-79%),3 (3=40-59%),4 (4=60-79%),5 (5=80-100%),1 (1=0-19%),1 (1=0-19%),1 (1=0-19%),5 (5=80-100%),,,,,,,,,
CCn1nnnc1NC(=O)c1ccc(OC(F)(F)F)c(NC(=O)c2ncccc2F)c1Cl [Compound 1.094],,,,,,,,,,5 (5=80-100%),5 (5=80-100%),5 (5=80-100%),5 (5=80-100%),1 (1=0-19%),1 (1=0-19%),1 (1=0-19%),1 (1=0-19%),5 (5=80-100%)
CCOCC(=O)Nc1c(OC(F)(F)F)ccc(C(=O)Nc2nnnn2CC)c1Cl [Compound 1.074],5 (5=80-100%),5 (5=80-100%),5 (5=80-100%),5 (5=80-100%),5 (5=80-100%),4 (4=60-79%),5 (5=80-100%),4 (4=60-79%),5 (5=80-100%),,,,,,,,,
Cn1nnnc1NC(=O)c1ccc(OC(F)(F)F)c(NC(=O)C(F)F)c1Cl [Compound 1.059],4 (4=60-79%),3 (3=40-59%),5 (5=80-100%),5 (5=80-100%),5 (5=80-100%),1 (1=0-19%),3 (3=40-59%),4 (4=60-79%),5 (5=80-100%),,,,,,,,,
